Where two headings read alike, the source gives them in different places.
Experiments:
[1] = In Vitro Microsome Stability Assay (monkey); assay type: in vitro ADME
In short: (§1)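 The value reported is the percentage of parent left after 30 min, calculated from analyte/IS peak-area ratios relative to time zero by LC-MS/MS. Incubations ran at 37° C in 0.1 M potassium phosphate with NADPH and microsomes (stock 20 mg/mL), with compound added from a 0.25 mM DMSO stock. Acetonitrile containing IS stopped the reactions.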

[2] = In Vitro Microsome Stability Assay (mouse); assay type: in vitro ADME
In short: as §1

[3] = In Vitro Microsome Stability Assay (human); assay type: in vitro ADME
In short: as §1

[4] = tested on: PD1 signal sequence plus 10 amino acids fused to Gaussia Luciferase (PD1-ss+10aa/Gaussia Luciferase); test: Dox Induced PD1-ss-Gluc Assay; assay type: cell-based; details: 24 hr, read-out: 24 hr Dox Inducible PD1ssGluc 293FRT/TO: Mean IC50
In short: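 Stable Flp-In 293 T-REx line expressing the fusion under tetracycline-inducible control, plated the day before assay. Compound dilutions added with doxycycline and incubated at 37 °C, 5% CO2; unspecified stereocentres mean data refer to stereoisomer mixtures.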

[5] = tested on: multiple myeloma cell line NCl-H929; test: H929 Cell Viability Assay; assay type: cell-based, human; details: Homo sapiens, NCI-H929, 48 h
In short: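 NCI-H929 myeloma cells in RPMI 1640 with 10% FBS were treated with compound dilutions for 48 h at 37 °C, and viability was then read by CellTiter-Glo luminescence. Compounds drawn without stereochemistry were tested as stereoisomer mixtures.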

[6] = tested on: multiple myeloma cell line U266B1; test: U266 Cell Viability Assay; assay type: cell-based, human; details: Homo sapiens, U-266, 48 hr
In short: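 U266B1 myeloma cells in RPMI 1640 with 10% FBS were treated with compound dilutions for 48 h at 37° C, 5% CO2. Viability was read as CellTiter-Glo luminescence. Data for structures drawn without stereochemistry refer to stereoisomer mixtures.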

[7] = tested on: full length TNFα (amino acids 1-233) fused to Gaussia Luciferase; test: Dox Induced TNFα-FL-Gluc Assay; assay type: cell-based; details: 24 hr, read-out: 24 hr Dox Inducible TNFaFLGluc 293FRT/TO: Mean IC50
In short: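 Stable Flp-In 293 T-REx line expressing doxycycline-inducible full-length TNFα fused to Gaussia luciferase; cells plated the day before, then treated with compound dilutions in doxycycline-containing medium at 37° C, 5% CO2. Unspecified stereocentres mean stereoisomer mixtures were tested.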

[8] = In Vitro Microsome Stability Assay (rat); assay type: in vitro ADME
In short: as §1

[9] = H929, read-out: 48 hr H929 Viability Celltiter-Glo: Mean EC50
[10] = U266, read-out: 48 hr U266 Viability Celltiter-Glo: Mean EC50

Row | Liver Microsome Stability-% Left after 30 min w/ NADPH (%) Monkey ([1]; monkey, 30 min, NADPH) | Liver Microsome Stability-% Left after 30 min w/ NADPH (%) Mouse ([2]; mouse, 30 min, NADPH) | Liver Microsome Stability-% Left after 30 min w/ NADPH (%) Human ([3]; human, 30 min, NADPH) | IC50 ([4]; 293FRT/TO) | EC50 [5, 9] | EC50 [6, 10] | IC50 ([7]; 293FRT/TO) | Liver Microsome Stability-% Left after 30 min w/ NADPH (%) Rat ([8]; rat, 30 min, NADPH) | Liver Microsome Stability-% Left after 30 min w/ NADPH (%) Monkey ([1]; monkey liver microsomes, 30 min w/ NADPH) | Liver Microsome Stability-% Left after 30 min w/ NADPH (%) Mouse ([2]; mouse liver microsomes, 30 min w/ NADPH) | Liver Microsome Stability-% Left after 30 min w/ NADPH (%) Human ([3]; human liver microsomes, 30 min w/ NADPH) | IC50 ([4]; Dox inducible, 293FRT/TO cells) | EC50 ([5]; H929, Celltiter-Glo) | EC50 ([6]; U266, Celltiter-Glo) | IC50 ([7]; Dox inducible, 293FRT/TO cells) | Liver Microsome Stability-% Left after 30 min w/ NADPH (%) Rat ([8]; rat liver microsomes, 30 min w/ NADPH) | SMILES
1 | 0.03% | 0.12% | 0.2% | 0.477 µM | > 25 µM | > 25 µM | > 25 µM | 0.12% | – | – | – | – | – | – | – | – | C=C1CN(S(=O)(=O)c2ccc(N(C)C)cc2)CCCN(CC2CCCCC2)CCCN(S(=O)(=O)N2CCC(c3ncccn3)CC2)C1 [A81, 4-{[9-(cyclohexylmethyl)-3-methylidene-5-{[4-(pyrimidin-2-yl)piperidin-1-yl]sulfonyl}-1,5,9-triazacyclododecan-1-yl]sulfonyl}-N,N-dimethylaniline]
2 | 38.3% | 29.3% | 31% | 0.0456 µM | 2.11 µM | > 25 µM | 1.04 µM | 40.1% | – | – | – | – | – | – | – | – | C=C1CN(S(=O)(=O)c2ccc(N(C)C)cc2)CCCN(CC2CCCCC2)CCCN(S(=O)(=O)N2CCc3ccc(Cl)cc3C2)C1 [A52, 4-({5-[(7-chloro-1,2,3,4-tetrahydroisoquinolin-2-yl)sulfonyl]-9-(cyclohexylmethyl)-3-methylidene-1,5,9-triazacyclododecan-1-yl}sulfonyl)-N,N-dimethylaniline]
3 | 34.9% | 23.4% | 39.3% | 0.0282 µM | 0.96 µM | > 25 µM | 0.961 µM | 47.6% | – | – | – | – | – | – | – | – | C=C1CN(S(=O)(=O)c2ccc(N(C)C)cc2)CCCN(CC2CCCCC2)CCCN(S(=O)(=O)N2CCN(c3ccccc3Cl)CC2)C1 [A83, 4-[(5-{[4-(2-chlorophenyl)piperazin-1-yl]sulfonyl}-9-(cyclohexylmethyl)-3-methylidene-1,5,9-triazacyclododecan-1-yl)sulfonyl]-N,N-dimethylaniline]
4 | 0.1% | 0.04% | 0.65% | 0.025 µM | 0.987 µM | > 25 µM | 1.47 µM | 0.1% | – | – | – | – | – | – | – | – | C=C1CN(S(=O)(=O)c2ccc(N(C)C)cc2)CCCN(CC2CCCCC2)CCCN(S(=O)(=O)N2CCCCC2)C1 [A13, 4-{[9-(cyclohexylmethyl)-3-methylidene-5-(piperidine-1-sulfonyl)-1,5,9-triazacyclododecan-1-yl]sulfonyl}-N,N-dimethylaniline]
5 | 27.6% | 28% | 33.2% | 0.0408 µM | 2.4 µM | > 25 µM | 0.937 µM | 45.4% | – | – | – | – | – | – | – | – | C=C1CN(S(=O)(=O)c2ccc(N(C)C)cc2)CCCN(CC2CCCCC2)CCCN(S(=O)(=O)N2CC=C(C3=CCCC3)CC2)C1 [A67, 4-{[9-(cyclohexylmethyl)-5-{[4-(cyclopent-1-en-1-yl)-1,2,3,6-tetrahydropyridin-1-yl]sulfonyl}-3-methylidene-1,5,9-triazacyclododecan-1-yl]sulfonyl}-N,N-dimethylaniline]
6 | 48% | 53.1% | 53.3% | 0.075 µM | 6.4 µM | > 25 µM | 3.29 µM | 63.1% | – | – | – | – | – | – | – | – | C=C1CN(S(=O)(=O)c2ccc(N(C)C)cc2)CCCN(CC2CCCCC2)CCCN(S(=O)(=O)N2CCC(C3CCCC3)CC2)C1 [A64, 4-{[9-(cyclohexylmethyl)-5-[(4-cyclopentylpiperidin-1-yl)sulfonyl]-3-methylidene-1,5,9-triazacyclododecan-1-yl]sulfonyl}-N,N-dimethylaniline]

Second part, the compound before the results:

Row | SMILES | Liver Microsome Stability-% Left after 30 min w/ NADPH (%) Monkey ([1]; monkey, 30 min, NADPH) | Liver Microsome Stability-% Left after 30 min w/ NADPH (%) Mouse ([2]; mouse, 30 min, NADPH) | Liver Microsome Stability-% Left after 30 min w/ NADPH (%) Human ([3]; human, 30 min, NADPH) | IC50 ([4]; 293FRT/TO) | EC50 [5, 9] | EC50 [6, 10] | IC50 ([7]; 293FRT/TO) | Liver Microsome Stability-% Left after 30 min w/ NADPH (%) Rat ([8]; rat, 30 min, NADPH) | Liver Microsome Stability-% Left after 30 min w/ NADPH (%) Monkey ([1]; monkey liver microsomes, 30 min w/ NADPH) | Liver Microsome Stability-% Left after 30 min w/ NADPH (%) Mouse ([2]; mouse liver microsomes, 30 min w/ NADPH) | Liver Microsome Stability-% Left after 30 min w/ NADPH (%) Human ([3]; human liver microsomes, 30 min w/ NADPH) | IC50 ([4]; Dox inducible, 293FRT/TO cells) | EC50 ([5]; H929, Celltiter-Glo) | EC50 ([6]; U266, Celltiter-Glo) | IC50 ([7]; Dox inducible, 293FRT/TO cells) | Liver Microsome Stability-% Left after 30 min w/ NADPH (%) Rat ([8]; rat liver microsomes, 30 min w/ NADPH)
7 | CN(C)c1ccc(S(=O)(=O)NCCCN(CCCNS(=O)(=O)N2CCC(c3ccccc3)CC2)CC2CCCCC2)cc1 [B7, N-{3-[(cyclohexylmethyl)(3-{[(4-phenylpiperidin-1-yl)sulfonyl]amino}propyl)amino]propyl}-4-(dimethylamino)benzene-1-sulfonamide] | – | – | – | – | – | – | – | – | 0.04% | 1.47% | 0.03% | 6.9 µM | 6.86 µM | 7.48 µM | 24.3 µM | 0.58%
8 | C=C1CN(S(=O)(=O)c2ccc(N(C)C)cc2)CCCN(CC2CCCCC2)CCCN(S(=O)(=O)N2CCN(c3ccccc3)[C@H](C)C2)C1 [A46, 4-{[9-(cyclohexylmethyl)-5-{[(3 R)-3-methyl-4-phenylpiperazin-1-yl]sulfonyl}-3-methylidene-1,5,9-triazacyclododecan-1-yl]sulfonyl}-N,N-dimethylaniline] | 1.44% | 3.63% | 6.12% | 0.0501 µM | 3.34 µM | > 25 µM | 1.76 µM | 4.46% | – | – | – | – | – | – | – | –
9 | COC1CCN(S(=O)(=O)N2CCCN(CC3CCCCC3)CCCN(S(=O)(=O)c3ccc(N(C)C)cc3)CC3(CC3)C2)CC1 [A27, 4-{[9-(cyclohexylmethyl)-13-[(4-methoxypiperidin-1-yl)sulfonyl]-5,9,13-triazaspiro[2.11]tetradecan-5-yl]sulfonyl}-N,N-dimethylaniline] | 2.07% | 2.15% | 2.52% | 0.493 µM | > 25 µM | > 25 µM | > 25 µM | 0.98% | – | – | – | – | – | – | – | –
10 | O=C(c1ccc(Cl)cc1)N1CCCN(S(=O)(=O)N2CCCCC2)CC2(CC2)CN(S(=O)(=O)N2CCCCC2)CCC1 [A24, (5,13-bis(piperidin-1-ylsulfonyl)-5,9,13-triazaspiro[2.11]tetradecan-9-yl)(4-chlorophenyl)methanone] | 0.03% | 0.13% | 0.03% | > 25 µM | > 25 µM | > 25 µM | > 25 µM | 0.04% | – | – | – | – | – | – | – | –
11 | C=C1CN(S(=O)(=O)c2ccc(N(C)C)cc2)CCCN(CC2CCCCC2)CCCN(S(=O)(=O)N2CC=C(c3ccccc3Cl)CC2)C1 [A73, 4-[(5-{[4-(2-chlorophenyl)-1,2,3,6-tetrahydropyridin-1-yl]sulfonyl}-9-(cyclohexylmethyl)-3-methylidene-1,5,9-triazacyclododecan-1-yl)sulfonyl]-N,N-dimethylaniline] | 25.4% | 16.3% | 18.2% | 0.0373 µM | 3.47 µM | > 25 µM | 1.86 µM | 71.5% | – | – | – | – | – | – | – | –
12 | COc1cccc(S(=O)(=O)N2CCCN(CC3CCCCC3)CCCN(S(=O)(=O)N3CCCCC3)CC3(CC3)C2)c1 [A32, 9-(cyclohexylmethyl)-5-(3-methoxybenzenesulfonyl)-13-(piperidine-1-sulfonyl)-5,9,13-triazaspiro[2.11]tetradecane] | 0.09% | 0.51% | 0.06% | > 25 µM | > 25 µM | > 25 µM | > 25 µM | 0.27% | – | – | – | – | – | – | – | –

From patent US11578055B2, “Triazacyclododecansulfonamide (“TCD”)-based protein secretion inhibitors” (KEZAR LIFE SCIENCES, priority 2018, dated 2023)
